Read-outs that look alike come from different tables or passages of the source.
Tests used:
[1] = target: recombinant human Mcl-1 (residues 171-327) / Bim interaction (Homo sapiens (Human), UniProt Q07820); experiment: biochemical; type: binding; settings: 0.1 nM Mcl-1(171-327), 0.05 nM biotin-Bim (51-76); read-out: Mcl-1 HTRF IC50
[2] = tested on: human multiple myeloma cell line, OPM-2; experiment: Cell viability assay (OPM-2 10 FBS), CellTiter-Glo; type: cell-based
In short: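 OPM-2 cells at 3000 cells/well in RPMI 1640 with 10% FBS were exposed to serially diluted compounds for 16 h at 37 °C, 5% CO2.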

[3] = Homo sapiens, OPM-2, 16 h, read-out: OPM-2 10% FBS IC50 IP, OPM-2 cells, 10% FBS, 16 h incubation
[4] = read-out: OPM-2 10% FBS IC50 IP, OPM-2 cells, 10% FBS, 16 h incubation

recombinant human Mcl-1 (residues 171-327) / Bim interaction, sequence (Q07820 171-327): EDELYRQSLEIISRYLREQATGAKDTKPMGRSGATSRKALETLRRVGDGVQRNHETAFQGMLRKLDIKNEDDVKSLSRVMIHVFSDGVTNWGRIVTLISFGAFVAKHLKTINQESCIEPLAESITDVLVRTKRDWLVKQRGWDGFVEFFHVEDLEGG

SMILES	IC50 [1]	IC50 [2, 3]	IC50 [2, 4]
CNC[C@@]1(OC)/C=C/C[C@H](C)[C@@H](C)S(=O)(=O)NC(=O)c2ccc3c(c2)N(C[C@@H]2CC[C@H]21)C[C@@]1(CCCc2cc(Cl)ccc21)CO3 [Example 70, (1S,3′R,6′R,7′R,8′E,11′S,12′R)-6-chloro-7′-methoxy-11′,12′-dimethyl-7′-((methylamino)methyl)-3,4-dihydro-2H,15′H-spiro[naphthalene-1,22′-[20]oxa[13]thia[1,14]diazatetracyclo [14.7.2.0~3,6~.0~19,24~]pentacosa[8,16,18,24]tetraen]-15′-one 13′,13′-dioxide]	1.33 nM	3140 nM	–
CO[C@]1(CN2CC(C)(C#N)C2)/C=C/C[C@H](C)[C@@H](C)S(=O)(=O)NC(=O)c2ccc3c(c2)N(C[C@@H]2CC[C@H]21)C[C@@]1(CCCc2cc(Cl)ccc21)CO3 [Example 71, 1-(((1S,3′R,6′R,7′R,8′E,11′S, 12′R)-6-chloro-7′-methoxy-11′,12′-dimethyl-13′,13′-dioxido-15′-oxo-3,4-dihydro-2H-spiro[naphthalene-1,22′-[20]oxa[13]thia[1,14]diazatetracyclo [14.7.2.0~3,6~.0~19,24~]pentacosa[8,16,18,24]tetraen]-7′-yl)methyl)-3-methyl-3-azetidinecarbonitrile]	0.371 nM	1140 nM	–
CO[C@]1(CN2CCN(Cc3cscn3)CC2)/C=C/C[C@H](C)[C@@H](C)S(=O)(=O)NC(=O)c2ccc3c(c2)N(C[C@@H]2CC[C@H]21)C[C@@]1(CCCc2cc(Cl)ccc21)CO3 [Example 72, (1S,3′R,6′R,7′R,8′E,11′S,12′R)-6-chloro-7′-methoxy-11′,12′-dimethyl-7′-((4-(1,3-thiazol-4-ylmethyl)-1-piperazinyl)methyl)-3,4-dihydro-2H,15′H-spiro[naphthalene-1,22′-[20]oxa[13]thia[1,14]diazatetracyclo [14.7.2.0~3,6~.0~19,24~]pentacosa[8,16,18,24]tetraen]-15′-one 13′,13′-dioxide]	0.8 nM	185 nM	–
CO[C@]1(CN2CCN(CCS(C)(=O)=O)CC2)/C=C/C[C@H](C)[C@@H](C)S(=O)(=O)NC(=O)c2ccc3c(c2)N(C[C@@H]2CC[C@H]21)C[C@@]1(CCCc2cc(Cl)ccc21)CO3 [Example 73, (1S,3′R,6′R,7′R,8′E,11′S,12′R)-6-chloro-7′-methoxy-11′,12′-dimethyl-7′-((4-(2-(methylsulfonyl)ethyl)-1-piperazinyl)methyl)-3,4-dihydro-2H,15′H-spiro[naphthalene-1,22′-[20]oxa[13]thia[1,14]diazatetracyclo [14.7.2.0~3,6~.0~19,24~]pentacosa[8,16,18,24]tetraen]-15′-one 13′,13′-dioxide]	0.609 nM	129 nM	–
CO[C@]1(CN2CCCCC2)/C=C/C[C@H](C)[C@@H](C)S(=O)(=O)NC(=O)c2ccc3c(c2)N(C[C@@H]2CC[C@H]21)C[C@@]1(CCCc2cc(Cl)ccc21)CO3 [Example 74, (1S,3′R,6′R,7′R,8′E,11′S,12′R)-6-chloro-7′-methoxy-11′,12′-dimethyl-7′-(1-piperidinylmethyl)-3,4-dihydro-2H,15′H-spiro[naphthalene-1,22′-[20]oxa[13]thia[1,14]diazatetracyclo [14.7.2.0~3,6~.0~19,24~]pentacosa[8,16,18,24]tetraen]-15′-one 13′,13′-dioxide]	2.29 nM	3360 nM	–
CO[C@@]1(CN2CCCCC2)/C=C/C[C@H](C)[C@@H](C)S(=O)(=O)NC(=O)c2ccc3c(c2)N(C[C@@H]2CC[C@H]21)C[C@@]1(CCCc2cc(Cl)ccc21)CO3 [Example 75, (1S,3′R,6′R,7′S,8′E,11′S,12′R)-6-chloro-7′-methoxy-11′,12′-dimethyl-7′-(1-piperidinylmethyl)-3,4-dihydro-2H,15′H-spiro[naphthalene-1,22′-[20]oxa[13]thia[1,14]diazatetracyclo [14.7.2.0~3,6~.0~19,24~]pentacosa[8,16,18,24]tetraen]-15′-one 13′,13′-dioxide]	2.05 nM	1610 nM	–
CO[C@]1(CN2CCC2)/C=C/C[C@H](C)[C@@H](C)S(=O)(=O)NC(=O)c2ccc3c(c2)N(C[C@@H]2CC[C@H]21)C[C@@]1(CCCc2cc(Cl)ccc21)CO3 [Example 76, (1S,3′R,6′R,7′R,8′E,11′S,12′R)-7′-(1-azetidinylmethyl)-6-chloro-7′-methoxy-11′,12′-dimethyl-3,4-dihydro-2H,15′H-spiro[naphthalene-1,22′-[20]oxa[13]thia[1,14]diazatetracyclo [14.7.2.0~3,6~.0~19,24~]pentacosa[8,16,18,24]tetraen]-15′-one 13′,13′-dioxide]	3.81 nM	670 nM	–
CO[C@@]1(CN2CCC2)/C=C/C[C@H](C)[C@@H](C)S(=O)(=O)NC(=O)c2ccc3c(c2)N(C[C@@H]2CC[C@H]21)C[C@@]1(CCCc2cc(Cl)ccc21)CO3 [Example 77, (1S,3′R,6′R,7′S,8′E,11′S,12′R)-7′-(1-azetidinylmethyl)-6-chloro-7′-methoxy-11′,12′-dimethyl-3,4-dihydro-2H,15′H-spiro[naphthalene-1,22′-[20]oxa[13]thia[1,14]diazatetracyclo [14.7.2.0~3,6~.0~19,24~]pentacosa[8,16,18,24]tetraen]-15′-one 13′,13′-dioxide]	1.22 nM	415 nM	–
CO[C@]1(CN2C[C@H]3CN(C)C[C@H]3C2)/C=C/C[C@H](C)[C@@H](C)S(=O)(=O)NC(=O)c2ccc3c(c2)N(C[C@@H]2CC[C@H]21)C[C@@]1(CCCc2cc(Cl)ccc21)CO3 [Example 82]	0.394 nM	520 nM	–
CO[C@]1(CN2CCN3CCC[C@@H]3C2)/C=C/C[C@H](C)[C@@H](C)S(=O)(=O)NC(=O)c2ccc3c(c2)N(C[C@@H]2CC[C@H]21)C[C@@]1(CCCc2cc(Cl)ccc21)CO3 [Example 83]	0.223 nM	–	245 nM
CO[C@]1(CN2CC(N3CCOCC3)C2)/C=C/C[C@H](C)[C@@H](C)S(=O)(=O)NC(=O)c2ccc3c(c2)N(C[C@@H]2CC[C@H]21)C[C@@]1(CCCc2cc(Cl)ccc21)CO3 [Example 84, (1S,3′R,6′R,7′R,8′E,11′S,12′R)-6-chloro-7′-methoxy-11′,12′-dimethyl-7′-((3-(4-morpholinyl)-1-azetidinyl)methyl)-3,4-dihydro-2H,15′H-spiro[naphthalene-1,22′-[20]oxa[13]thia[1,14]diazatetracyclo [14.7.2.0~3,6~.0~19,24~]pentacosa[8,16,18,24]tetraen]-15′-one 13′,13′-dioxide]	0.106 nM	61 nM	–
CO[C@]1(CN2CCC(N3CCOCC3)CC2)/C=C/C[C@H](C)[C@@H](C)S(=O)(=O)NC(=O)c2ccc3c(c2)N(C[C@@H]2CC[C@H]21)C[C@@]1(CCCc2cc(Cl)ccc21)CO3 [Example 85, (1S,3′R,6′R,7′R,8′E,11′S,12′R)-6-chloro-7′-methoxy-11′,12′-dimethyl-7′-((4-(4-morpholinyl)-1-piperidinyl)methyl)-3,4-dihydro-2H,15′H-spiro[naphthalene-1,22′-[20]oxa[13]thia[1,14]diazatetracyclo [14.7.2.0~3,6~.0~19,24~]pentacosa[8,16,18,24]tetraen]-15′-one 13′,13′-dioxide]	0.491 nM	274 nM	–
CO[C@]1(CN2CC[C@H]3CCCC[C@@H]3C2)/C=C/C[C@H](C)[C@@H](C)S(=O)(=O)NC(=O)c2ccc3c(c2)N(C[C@@H]2CC[C@H]21)C[C@@]1(CCCc2cc(Cl)ccc21)CO3 [Example 86]	3.9 nM	–	7950 nM
CCN1CCN(C[C@@]2(OC)/C=C/C[C@H](C)[C@@H](C)S(=O)(=O)NC(=O)c3ccc4c(c3)N(C[C@@H]3CC[C@H]32)C[C@@]2(CCCc3cc(Cl)ccc32)CO4)CC1 [Example 88, (1S,3′R,6′R,7′R,8′E,11′S,12′R)-6-chloro-7′-((4-ethyl-1-piperazinyl)methyl)-7′-methoxy-11′,12′-dimethyl-3,4-dihydro-2H,15′H-spiro[naphthalene-1,22′-[20]oxa[13]thia[1,14]diazatetracyclo [14.7.2.0~3,6~.0~19,24~]pentacosa[8,16,18,24]tetraen]-15′-one 13′,13′-dioxide]	0.139 nM	74 nM	–
CO[C@]1(CN2CCN(C3CC3)CC2)/C=C/C[C@H](C)[C@@H](C)S(=O)(=O)NC(=O)c2ccc3c(c2)N(C[C@@H]2CC[C@H]21)C[C@@]1(CCCc2cc(Cl)ccc21)CO3 [Example 91, (1S,3′R,6′R,7′R,8′E,11′S,12′R)-6-chloro-7′-((4-cyclopropyl-1-piperazinyl)methyl)-7′-methoxy-11′,12′-dimethyl-3,4-dihydro-2H,15′H-spiro[naphthalene-1,22′-[20]oxa[13]thia[1,14]diazatetracyclo [14.7.2.0~3,6~.0~19,24~]pentacosa[8,16,18,24]tetraen]-15′-one 13′,13′-dioxide]	0.203 nM	559 nM	–
CO[C@]1(CN2CCN(C3CCC3)CC2)/C=C/C[C@H](C)[C@@H](C)S(=O)(=O)NC(=O)c2ccc3c(c2)N(C[C@@H]2CC[C@H]21)C[C@@]1(CCCc2cc(Cl)ccc21)CO3 [Example 92, (1S,3′R,6′R,7′R,8′E,11′S,12′R)-6-chloro-7′-((4-cyclobutyl-1-piperazinyl)methyl)-7′-methoxy-11′,12′-dimethyl-3,4-dihydro-2H,15′H-spiro[naphthalene-1,22′-[20]oxa[13]thia[1,14]diazatetracyclo [14.7.2.0~3,6~.0~19,24~]pentacosa[8,16,18,24]tetraen]-15′-one 13′,13′-dioxide]	0.143 nM	199 nM	–

Source: US10821115B2, “Compounds that inhibit Mcl-1 protein” (priority 2017, dated 2020)
